According to patent publication US11053204B2, “Pyrimidinyloxy benzene derivatives as herbicides” (FMC Corporation, priority 2015, dated 2021):

How the values were obtained:
Format in all cases: in vivo
[1] = test system: barnyardgrass (Echinochloa crus-galli); experiment: Test B flooded paddy test, plant response rating; settings: 250 g ai/ha; Flood; scale of 0 to 100 where 0 is no effect and 100 is complete control; 13 to 15 days
How it was run: (§1)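 In-water treatment: compound dosed into 3 cm flood over soil, water level unchanged throughout. Controls run alongside; visual assessment at day 13–15.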

[2] = test system: ducksalad (Heteranthera limosa); experiment: Test B flooded paddy test, plant response rating; settings: 250 g ai/ha; Flood; scale of 0 to 100 where 0 is no effect and 100 is complete control; 13 to 15 days
How it was run: as §1

[3] = test system: sedge, umbrella (small-flower umbrella sedge, Cyperus difformis); experiment: Test B flooded paddy test, plant response rating; settings: 250 g ai/ha; Flood; scale of 0 to 100 where 0 is no effect and 100 is complete control; 13 to 15 days
How it was run: as §1

[4] = test system: rice (Oryza sativa); experiment: Test B flooded paddy test, plant response rating; settings: 250 g ai/ha; Flood; scale of 0 to 100 where 0 is no effect and 100 is complete control; 13 to 15 days
How it was run: as §1

[5] = test system: blackgrass (Alopecurus myosuroides); experiment: Test A postemergence, visual injury rating; settings: 0 is no effect, 100 is complete control; for Blackgrass plant response rating: 0 to 100 scale, approximately 10 days
How it was run: (§2)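 Scoring: eye-based comparison with untreated controls, 0 for no effect through 100 for complete control, at about day 10. Treatments: directed soil spray preemergence; foliar spray postemergence on 2–10 cm plants at the one- to two-leaf stage. Medium: loam soil with sand.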

[6] = test system: barnyardgrass (Echinochloa crus-galli); experiment: Test A postemergence, visual injury rating; settings: 0 is no effect, 100 is complete control; for Barnyardgrass plant response rating: 0 to 100 scale, approximately 10 days
How it was run: as §2

[7] = test system: pigweed (Amaranthus retroflexus); experiment: Test A postemergence, visual injury rating; settings: 0 is no effect, 100 is complete control; for Pigweed plant response rating: 0 to 100 scale, approximately 10 days
How it was run: as §2

[8] = test system: ragweed (common ragweed, Ambrosia elatior); experiment: Test A postemergence, visual injury rating; settings: 0 is no effect, 100 is complete control; for Ragweed plant response rating: 0 to 100 scale, approximately 10 days
How it was run: as §2

[9] = test system: kochia (Kochia scoparia); experiment: Test A postemergence, visual injury rating; settings: 0 is no effect, 100 is complete control; for Kochia plant response rating: 0 to 100 scale, approximately 10 days
How it was run: as §2

[10] = test system: Italian ryegrass (Lolium multiflorum); experiment: Test A postemergence, visual injury rating; settings: 0 is no effect, 100 is complete control; for Ryegrass, Italian plant response rating: 0 to 100 scale, approximately 10 days
How it was run: as §2

[11] = test system: corn (Zea mays); experiment: Test A postemergence, visual injury rating; settings: 0 is no effect, 100 is complete control; for Corn plant response rating: 0 to 100 scale, approximately 10 days
How it was run: as §2

[12] = test system: wheat (Triticum aestivum); experiment: Test A postemergence, visual injury rating; settings: 0 is no effect, 100 is complete control; for Wheat plant response rating: 0 to 100 scale, approximately 10 days
How it was run: as §2

[13] = test system: galium (catchweed bedstraw, Galium aparine); experiment: Test A postemergence, visual injury rating; settings: 0 is no effect, 100 is complete control; for Galium plant response rating: 0 to 100 scale, approximately 10 days
How it was run: as §2

[14] = test system: giant foxtail (Setaria faberii); experiment: Test A postemergence, visual injury rating; settings: 0 is no effect, 100 is complete control; for Foxtail, Giant plant response rating: 0 to 100 scale, approximately 10 days
How it was run: as §2

[15] = test system: barnyardgrass (Echinochloa crus-galli); experiment: Test A preemergence, visual injury rating; settings: for Plant response rating, Barnyardgrass: 31 g ai/ha, 0 to 100 scale, 0 no effect, 100 complete control; for Barnyardgrass plant response rating: 0 to 100 scale (0 no effect, 100 complete control)
How it was run: as §2

[16] = test system: pigweed (Amaranthus retroflexus); experiment: Test A preemergence, visual injury rating; settings: for Plant response rating, Pigweed: 31 g ai/ha, 0 to 100 scale, 0 no effect, 100 complete control; for Pigweed plant response rating: 0 to 100 scale (0 no effect, 100 complete control)
How it was run: as §2

[17] = test system: ragweed (common ragweed, Ambrosia elatior); experiment: Test A preemergence, visual injury rating; settings: for Plant response rating, Ragweed: 31 g ai/ha, 0 to 100 scale, 0 no effect, 100 complete control; for Ragweed plant response rating: 0 to 100 scale (0 no effect, 100 complete control)
How it was run: as §2

[18] = test system: kochia (Kochia scoparia); experiment: Test A preemergence, visual injury rating; settings: for Plant response rating, Kochia: 31 g ai/ha, 0 to 100 scale, 0 no effect, 100 complete control; for Kochia plant response rating: 0 to 100 scale (0 no effect, 100 complete control)
How it was run: as §2

[19] = test system: Italian ryegrass (Lolium multiflorum); experiment: Test A preemergence, visual injury rating; settings: for Plant response rating, Ryegrass, Italian: 31 g ai/ha, 0 to 100 scale, 0 no effect, 100 complete control; for Ryegrass, Italian plant response rating: 0 to 100 scale (0 no effect, 100 complete control)
How it was run: as §2

[20] = test system: giant foxtail (Setaria faberii); experiment: Test A preemergence, visual injury rating; settings: for Plant response rating, Foxtail, Giant: 31 g ai/ha, 0 to 100 scale, 0 no effect, 100 complete control; for Foxtail, Giant plant response rating: 0 to 100 scale (0 no effect, 100 complete control)
How it was run: as §2

FC(F)(F)C(F)(F)COCc1c(Br)cccc1Oc1ncc(Cl)cn1 [Compound 63]
10: Barnyardgrass plant response rating (0 to 100 scale) ([6]; 125 g ai/ha) | Corn plant response rating ([11]; 31 g ai/ha) | Plant response rating, Foxtail, Giant [20]
30: Corn plant response rating (0 to 100 scale) ([11]; 125 g ai/ha) | Galium plant response rating (0 to 100 scale) ([13]; 125 g ai/ha) | Foxtail, Giant plant response rating (0 to 100 scale) ([14]; 125 g ai/ha)
45: Plant response rating, Barnyardgrass [1]
60: Pigweed plant response rating (0 to 100 scale) ([7]; 125 g ai/ha)
25: Plant response rating, Rice [4]
50: Kochia plant response rating (0 to 100 scale) ([9]; 125 g ai/ha)
40: Plant response rating, Barnyardgrass [15]
100: Plant response rating, Ducksalad [2] | Plant response rating, Sedge, Umbrella [3] | Barnyardgrass plant response rating ([15]; 125 g ai/ha)
20: Pigweed plant response rating ([7]; 31 g ai/ha) | Kochia plant response rating ([9]; 31 g ai/ha)
0: Blackgrass plant response rating ([5]; 31 g ai/ha) | Blackgrass plant response rating (0 to 100 scale) ([5]; 125 g ai/ha) | Barnyardgrass plant response rating ([6]; 31 g ai/ha) | Ragweed plant response rating ([8]; 31 g ai/ha) | Ragweed plant response rating (0 to 100 scale) ([8]; 125 g ai/ha) | Ryegrass, Italian plant response rating ([10]; 31 g ai/ha) | Ryegrass, Italian plant response rating (0 to 100 scale) ([10]; 125 g ai/ha) | Wheat plant response rating ([12]; 31 g ai/ha) | Wheat plant response rating (0 to 100 scale) ([12]; 125 g ai/ha) | Galium plant response rating ([13]; 31 g ai/ha) | Foxtail, Giant plant response rating ([14]; 31 g ai/ha) | Plant response rating, Pigweed [16] | Plant response rating, Ragweed [17] | Ragweed plant response rating ([17]; 125 g ai/ha) | Plant response rating, Kochia [18] | Kochia plant response rating ([18]; 125 g ai/ha) | Plant response rating, Ryegrass, Italian [19] | Ryegrass, Italian plant response rating ([19]; 125 g ai/ha)
90: Pigweed plant response rating ([16]; 125 g ai/ha) | Foxtail, Giant plant response rating ([20]; 125 g ai/ha)

C=CCSC(=O)c1c(Br)cccc1Oc1ncc(Cl)cn1 [Compound 91]
90: Galium plant response rating (0 to 100 scale) ([13]; 500 g ai/ha) | Barnyardgrass plant response rating ([15]; 125 g ai/ha)
30: Blackgrass plant response rating (0 to 100 scale) ([5]; 500 g ai/ha) | Barnyardgrass plant response rating ([6]; 125 g ai/ha) | Ryegrass, Italian plant response rating (0 to 100 scale) ([10]; 500 g ai/ha) | Wheat plant response rating (0 to 100 scale) ([12]; 500 g ai/ha) | Foxtail, Giant plant response rating ([14]; 125 g ai/ha)
80: Ryegrass, Italian plant response rating ([19]; 500 g ai/ha)
100: Plant response rating, Ducksalad [2] | Barnyardgrass plant response rating (0 to 100 scale) ([6]; 500 g ai/ha) | Pigweed plant response rating ([7]; 125 g ai/ha) | Pigweed plant response rating (0 to 100 scale) ([7]; 500 g ai/ha) | Kochia plant response rating (0 to 100 scale) ([9]; 500 g ai/ha) | Foxtail, Giant plant response rating (0 to 100 scale) ([14]; 500 g ai/ha) | Barnyardgrass plant response rating ([15]; 500 g ai/ha) | Pigweed plant response rating ([16]; 500 g ai/ha) | Kochia plant response rating ([18]; 500 g ai/ha) | Foxtail, Giant plant response rating ([20]; 500 g ai/ha)
70: Galium plant response rating ([13]; 125 g ai/ha) | Foxtail, Giant plant response rating ([20]; 125 g ai/ha)
50: Corn plant response rating (0 to 100 scale) ([11]; 500 g ai/ha)
60: Kochia plant response rating ([9]; 125 g ai/ha)
0: Plant response rating, Barnyardgrass [1] | Ragweed plant response rating ([8]; 125 g ai/ha) | Ryegrass, Italian plant response rating ([10]; 125 g ai/ha) | Ragweed plant response rating ([17]; 125 g ai/ha) | Ragweed plant response rating ([17]; 500 g ai/ha) | Ryegrass, Italian plant response rating ([19]; 125 g ai/ha)
40: Pigweed plant response rating ([16]; 125 g ai/ha)
20: Plant response rating, Rice [4] | Blackgrass plant response rating ([5]; 125 g ai/ha) | Ragweed plant response rating (0 to 100 scale) ([8]; 500 g ai/ha) | Corn plant response rating ([11]; 125 g ai/ha) | Wheat plant response rating ([12]; 125 g ai/ha) | Kochia plant response rating ([18]; 125 g ai/ha)
95: Plant response rating, Sedge, Umbrella [3]

C=C(C)CCOC(=O)c1c(Br)cccc1Oc1ncc(Cl)cn1 [Compound 90]
40: Barnyardgrass plant response rating ([15]; 125 g ai/ha)
60: Plant response rating, Sedge, Umbrella [3] | Foxtail, Giant plant response rating ([14]; 125 g ai/ha)
0: Plant response rating, Barnyardgrass [1] | Plant response rating, Rice [4] | Blackgrass plant response rating ([5]; 31 g ai/ha) | Blackgrass plant response rating ([5]; 125 g ai/ha) | Barnyardgrass plant response rating ([6]; 31 g ai/ha) | Ragweed plant response rating ([8]; 31 g ai/ha) | Ragweed plant response rating ([8]; 125 g ai/ha) | Ryegrass, Italian plant response rating ([10]; 31 g ai/ha) | Ryegrass, Italian plant response rating ([10]; 125 g ai/ha) | Corn plant response rating ([11]; 31 g ai/ha) | Wheat plant response rating ([12]; 31 g ai/ha) | Wheat plant response rating ([12]; 125 g ai/ha) | Galium plant response rating ([13]; 31 g ai/ha) | Plant response rating, Barnyardgrass [15] | Plant response rating, Pigweed [16] | Pigweed plant response rating ([16]; 125 g ai/ha) | Plant response rating, Ragweed [17] | Ragweed plant response rating ([17]; 125 g ai/ha) | Plant response rating, Kochia [18] | Kochia plant response rating ([18]; 125 g ai/ha) | Plant response rating, Ryegrass, Italian [19] | Ryegrass, Italian plant response rating ([19]; 125 g ai/ha)
10: Pigweed plant response rating ([7]; 31 g ai/ha) | Corn plant response rating ([11]; 125 g ai/ha) | Foxtail, Giant plant response rating ([14]; 31 g ai/ha) | Plant response rating, Foxtail, Giant [20]
70: Foxtail, Giant plant response rating ([20]; 125 g ai/ha)
30: Plant response rating, Ducksalad [2] | Barnyardgrass plant response rating ([6]; 125 g ai/ha) | Kochia plant response rating ([9]; 31 g ai/ha)
50: Pigweed plant response rating ([7]; 125 g ai/ha) | Kochia plant response rating ([9]; 125 g ai/ha)
20: Galium plant response rating ([13]; 125 g ai/ha)
